Measured values published in patent publication US20250041190A1, “Composition and application, in particular cosmetic” (MICROPHYT, priority 2021, published 2025).

What was measured:
[1] = system: co-culture of sensory neurons and keratinocytes; assay: Length of neuronal extensions in co-culture of sensory neurons and keratinocytes stressed with capsaicin; type: cell-based, human; details: positive control: capsaicin 10 μM alone; composition-free control (DMSO 0.2%) = 100; n=6
Procedure: (§1) Sensory neurons were obtained from hiPS cells (human induced pluripotent stem cells), which were themselves obtained from human fibroblasts. The cells were seeded and maintained for 6 days in a differentiation-inducing medium at 37° C. (5% CO2). The culture medium was changed every 2 days. After 9 days in culture, the culture medium was replaced with a maturation medium. Cells were maintained in culture at a temperature of 37° C. under 5% CO2. The culture medium was changed every 2-3 days. After 14 days in culture, commercial keratinocytes from an adult donor (Lonza) were added to the differentiated hiPS cell culture. The co-culture was maintained in a culture medium consisting of a mixture of maturation medium and keratinocyte growth medium (Promocell) at a temperature of 37° C. under 5% CO2. The culture medium was changed every 2-3 days.
After a 17-day co-culture period, the composition was added to the medium at a final concentration by weight relative to the total weight of the medium and composition of 0.01% or 0.05% (w/w).
After a 24-hour incubation period, capsaicin (10 µM) or AITC (1 mM) or DMSO (0.2% w/w) as a control, was added to the co-culture in the presence of the composition according to the invention. […]
A neuron count was performed and the length of the neuronal extensions was measured for each condition. […]

[2] = system: MOR receptor (μ-opioid receptor); assay: MOR receptor immunolabeling in co-culture of human keratinocytes and sensory neurons stressed with capsaicin; type: cell-based; details: positive control: capsaicin 10 μM alone; composition-free control (DMSO 0.2%) = 100; n=6
Procedure: as §1
(§2) After a 17-day co-culture period, the composition was added to the medium at a final concentration by weight relative to the total weight of the medium and composition of 0.01% or 0.05% (w/w). […]
(§3) Photographs were taken with an automated microscope (InCell 2200; GE Healthcare) at ×20 magnification. MOR marker expression density was measured and compared with the control condition, corresponding to the mean of 6 samples (n=6). […]

neuropeptide CGRP [3] = assay: CGRP ELISA assay in co-culture of keratinocytes and sensory neurons, oxidative stress with capsaicin; type: cell-based, human; details: positive control: capsaicin 10 μM alone, 30 min stress; unstressed control (DMSO 0.2%) = 100; n=6
Procedure: Sensory neurons were obtained from hiPS cells (human induced pluripotent stem cells), which were themselves obtained from human fibroblasts. The cells were seeded and maintained for 6 days in a differentiation-inducing medium at 37° C. (5% CO2). The culture medium was changed every 2 days. After 9 days in culture, the culture medium was replaced with a maturation medium. Cells were maintained in culture at a temperature of 37° C. under 5% CO2. The culture medium was changed every 2-3 days. After 14 days in culture, commercial keratinocytes from an adult donor (Lonza) were added to the differentiated hiPS cell culture. The co-culture was maintained in a culture medium consisting of a mixture of maturation medium and keratinocyte growth medium (Promocell) at a temperature of 37° C. under 5% CO2. The culture medium was changed every 2-3 days. After a 17-day co-culture period, the composition was added to the medium at a final concentration by weight relative to the total weight of the medium and composition of 0.01% or 0.05% (w/w). After a 24-hour incubation period, capsaicin (10 µM) or AITC (1 mM) or DMSO (0.2% w/w) as a control, was added to the co-culture in the presence of the composition according to the invention. […] The results are expressed as the mean of 6 samples (n=6).

neuropeptide CGRP [4] = assay: CGRP ELISA assay in co-culture of keratinocytes and sensory neurons, oxidative stress with AITC; type: cell-based, human; details: positive control: AITC 1 mM alone, 30 min stress; unstressed control (DMSO 0.2%) = 100; n=6
Procedure: as §1, §2
CGRP assay: After a 30-minute stress period, the culture supernatants were recovered and a CGRP assay by ELISA was performed. The results are expressed as the mean of 6 samples (n=6). […]

[5] = system: MOR receptor (μ-opioid receptor); assay: MOR receptor immunolabeling in co-culture of human keratinocytes and sensory neurons stressed with AITC; type: cell-based; details: positive control: AITC 1 mM alone; composition-free control (DMSO 0.2%) = 100; n=6
Procedure: as §1, §2, §3

Row | SMILES | Length of neuronal extensions/nbr of neurons (%) [1] | Level of MOR receptor protein expression (%) [2] | Protein amount of CGRP (%) (neuropeptide CGRP [3]) | Protein amount of CGRP (%) (neuropeptide CGRP [4]) | Level of MOR receptor protein expression (%) [5]
1 | COc1cc(CNC(=O)CCCC/C=C/C(C)C)ccc1O [capsaicin] | 76% | 82% | 135% | – | –
2 | C=CCN=C=S [AITC, allyl isothiocyanate] | – | – | – | 132% | 78%
